According to US8586551B2, “18-membered macrocycles and analogs thereof” (Optimer Pharmaceuticals, Inc., priority 2005, dated 2013):
Converted amounts (≈) assume the structure as drawn.

What was measured:
[1] = test system: Clostridium perfringens; format: cell-based; details: Clostridium perfringens (14)
[2] = test system: Other anaerobic gram-negative rods; assay: MIC against intestinal bacteria: other anaerobic gram-negative rods; format: cell-based
[3] = test system: Clostridium bolteae; assay: MIC against intestinal bacteria: Clostridium bolteae; format: cell-based; details: Clostridium bolteae (7)
[4] = test system: Fusobacterium species, miscellaneous; assay: MIC against anaerobes: Fusobacterium species, miscellaneous; format: cell-based; details: miscellaneous (14)
Procedure: (§1) The in vitro activity of OPT-80 was determined against 350 anaerobes. The experimental procedure for which is outlined in Antimicrobial Agents and Chemotherapy, 2004, 48: 4430-4434, which is hereby incorporated by reference in its entirety.
(§2) All organisms, including the 21 C. difficile strains, were separate isolates and not clonally related. All quality-control gram-negative and -positive strains recommended by NCCLS were included with each run: in every case, results (where available) were in range.

[5] = test system: Clostridium paraputrificum; assay: MIC against intestinal bacteria: Clostridium paraputrificum; format: cell-based; details: Clostridium paraputrificum (8)
[6] = test system: Clostridium species; assay: MIC against anaerobes: Clostridium species; format: cell-based; details: Clostridium species (19)
Procedure: as §1, §2

[7] = test system: Staphylococcus aureus and Staphylococcus epidermidis; assay: MIC against intestinal bacteria: Staphylococcus aureus and Staphylococcus epidermidis; format: cell-based; details: Staphylococcus aureus and Staphylococcus epidermidis (19)
[8] = test system: Clostridium glycolicum; assay: MIC against intestinal bacteria: Clostridium glycolicum; format: cell-based; details: Clostridium glycolicum (9)
[9] = test system: Anaerobic gram-positive cocci; assay: MIC against intestinal bacteria: anaerobic gram-positive cocci; format: cell-based; details: Anaerobic gram-positive cocci (49)
[10] = test system: Propionibacterium acnes; assay: MIC against anaerobes: Propionibacterium acnes; format: cell-based; details: Propionibacterium acnes (20)
[11] = test system: Clostridium bifermentans; assay: MIC against intestinal bacteria: Clostridium bifermentans; format: cell-based; details: Clostridium bifermentans (9)
[12] = test system: Clostridium innocuum; assay: MIC against intestinal bacteria: Clostridium innocuum; format: cell-based; details: Clostridium innocuum (9)
Procedure: (§3) The in vitro activity of OPT-80 against intestinal bacteria was evaluated. The experimental procedure for which is outlined in Antimicrobial Agents and Chemotherapy, 2004, 48: 4898-4902, which is hereby incorporated by reference in its entirety.
(§4) Antimicrobial concentration ranges were selected to encompass or surpass the levels that would be achieved in the gut (to the extent that this information is available), subject to the limitations of solubility of the drugs in the testing medium. The range of concentration of OPT-80 used during testing was 0.03 μg/ml to 1024 μg/ml.
(§5) For analysis, the bacteria tested were generally placed into genus, species, or other groups with at least 10 isolates. The ranges and the MICs at which 50 and 90% of isolates were inhibited were determined except for organisms with fewer than 10 strains tested, for which only the ranges are reported (Table 8).

[13] = test system: Bacteroides fragilis; assay: MIC against anaerobes: Bacteroides fragilis; format: cell-based; details: Bacteroides fragilis (19)
Procedure: as §1, §2

[14] = test system: Miscellaneous gram-positive non-spore-forming rods; assay: MIC against anaerobes: miscellaneous gram-positive non-spore-forming rods; format: cell-based; details: Miscellaneous gram-positive non-spore-forming rods (20)
[15] = test system: Clostridium difficile; assay: MIC against anaerobes: Clostridium difficile; format: cell-based; details: Clostridium difficile (21)
Procedure: as §1, §2

[16] = test system: Other Streptococcus species; assay: MIC against intestinal bacteria: other Streptococcus species; format: cell-based; details: Other Streptococcus species (9)
Procedure: as §3, §4, §5

[17] = test system: Fusobacterium mortiferum; assay: MIC against anaerobes: Fusobacterium mortiferum; format: cell-based; details: Fusobacterium mortiferum (10)
Procedure: as §1, §2

[18] = test system: All Clostridium species; assay: MIC against intestinal bacteria: all Clostridium species; format: cell-based; details: All Clostridium species (107)
[19] = test system: All anaerobic gram-negative species; assay: MIC against intestinal bacteria: all anaerobic gram-negative species; format: cell-based
[20] = test system: Peptostreptococcus tetradius; assay: MIC against anaerobes: Peptostreptococcus tetradius; format: cell-based; details: Peptostreptococcus tetradius (16)
[21] = test system: Veillonella spp.; assay: MIC against intestinal bacteria: Veillonella; format: cell-based; details: Veillonella spp. (10)
Procedure: as §3, §4, §5

[22] = test system: S. aureus; assay: MIC against other microorganisms: S. aureus

What does the source list for `CCc1c(Cl)c(O)c(Cl)c(O)c1C(=O)O[C@H]1[C@H](O)[C@H](OC)[C@H](OCC2=CC=CC[C@H](O)C(C)=C[C@H](CC)[C@@H](O[C@@H]3OC(C)(C)[C@@H](OC(=O)C(C)C)[C@H](O)[C@@H]3O)C(C)=CC(C)=CC[C@@H]([C@@H](C)O)OC2=O)O[C@@H]1C` [R-Tiacumicin B, 3-[[[6-Deoxy-4-O-(3,5-dichloro-2-ethyl-4,6-dihydroxybenzoyl)-2-O-methyl-β-D-mannopyranosyl]oxy]-methyl]-12(R)-[[6-deoxy-5-C-methyl-4-O-(2-methyl-1-oxopropyl)-β-D-lyxo-hexopyranosyl]oxy]-11(S)-ethyl-8(S)-hydroxy-18(S)-(1(R)-hydroxyethyl)-9,13,15-trimethyloxacyclooctadeca-3,5,9,13,15-pentaene-2-one]?
MIC range [1]: 0.06 µg/mL (≈ 0.0567 µM); MIC50 [2]: 1020 µg/mL (≈ 968 µM); MIC90 [2]: > 1020 µg/mL; MIC range ([2]; Other anaerobic gram-negative rods (51)): 0.06 to 1024 µg/mL; MIC range [3]: 1 to 64 µg/mL; MIC50 [4]: > 128 µg/mL; MIC90 [4]: > 128 µg/mL; MIC range [5]: 0.06 to 8 µg/mL; MIC50 [6]: < 0.016 µg/mL; MIC90 [6]: 0.03 µg/mL (≈ 0.0284 µM); MIC50 [7]: 0.5 µg/mL (≈ 0.473 µM); MIC90 [7]: 2 µg/mL (≈ 1.89 µM); MIC range [7]: 0.25 to 2 µg/mL; MIC range [8]: 0.06 to 1 µg/mL; MIC50 [9]: 0.5 µg/mL (≈ 0.473 µM); MIC90 [9]: 2 µg/mL (≈ 1.89 µM); MIC50 ([10]; Cutibacterium acnes): 4 µg/mL (≈ 3.78 µM); MIC90 ([10]; Cutibacterium acnes): 4 µg/mL (≈ 3.78 µM); MIC range [10]: 0.5 to 1.0 µg/mL; MIC range [11]: 0.06 µg/mL (≈ 0.0567 µM); MIC range [12]: 32 to 128 µg/mL; MIC50 [13]: > 128 µg/mL; MIC90 [13]: > 128 µg/mL; MIC50 [14]: < 0.125 µg/mL; MIC90 [14]: 16 µg/mL (≈ 15.1 µM); MIC range [14]: <0.016 to 16 µg/mL; MIC50 ([15]; Clostridioides difficile): < 0.016 µg/mL; MIC90 ([15]; Clostridioides difficile): 0.125 µg/mL (≈ 0.118 µM); MIC range [15]: <0.016 to 0.25 µg/mL; MIC range [16]: 16 to 128 µg/mL; MIC50 [17]: > 128 µg/mL; MIC90 [17]: > 128 µg/mL; MIC50 [18]: 0.062 µg/mL (≈ 0.0586 µM); MIC90 [18]: 128 µg/mL (≈ 121 µM); MIC90 [19]: > 1020 µg/mL; MIC50 ([19]; All anaerobic gram-negative species (111)): 256 µg/mL (≈ 242 µM); MIC50 ([20]; Anaerococcus tetradius): 1 µg/mL (≈ 0.945 µM); MIC90 ([20]; Anaerococcus tetradius): 1 µg/mL (≈ 0.945 µM); MIC range [20]: 0.25 to 2.0 µg/mL; MIC50 [21]: 32 µg/mL (≈ 30.2 µM); MIC90 [21]: 128 µg/mL (≈ 121 µM); MIC range [21]: 16 to 128 µg/mL; MIC ([22]; Staphylococcus aureus, ATCC29213): 4 µg/mL (≈ 3.78 µM); MIC ([22]; Staphylococcus aureus, MRSA): 4 µg/mL (≈ 3.78 µM); MIC ([22]; Strain ID # 3, S. aureus, (MRSA)): 4 µg/mL (≈ 3.78 µM)
